From patent US10426773B2, “Systems pharmacology for treating ocular disorders” (Case Western Reserve Univeristy, priority 2011, dated 2019)
Entries after “also recorded” stand apart in the source; their conditions may differ. Structures can show the parent of a compound that is named as a salt.

How the values were obtained:
ARPE19 cells = experiment: In vitro detection and quantification of intracellular ROS in ARPE19 cells (DCF-DA / DHE probes); type: cell-based, human; conditions: retinoid applied to cultured ARPE19 cells, ROS probe DCF-DA or DHE
Method: ARPE19 cells were cultured in Dulbecco's Modified Eagle's Medium (DMEM) (low glucose) supplemented with 10% fetal bovine serum. The ROS probes, 2′,7′-dichlorofluorescein diacetate (DCF-DA, Sigma, St. Louis, Mo.) or dihydroethidium (DHE, Invitrogen Corporation, Carlsbad, Calif.) were added after indicated pretreatments and incubated at 37° C. for 10-min before thorough washing in PBS and the ROS signals were subsequently observed at the same exposure setting under an inverted fluorescence microscope (Leica DMI 6000 B). Fluorescence quantification was performed with Metamorph imaging software (Molecular Devices, Downington, Pa.). Thresholds corresponding to fluorescent signals were set from the images and average fluorescence intensities were recorded for statistical analysis.

Abca4−/−Rdh8−/− mice [1] = experiment: Bright light-induced retinal degeneration in Abca4−/−Rdh8−/− mice, OCT imaging of retinal structure; type: in vivo, mouse; conditions: for Effect (effectiveness at preventing light-induced photoreceptor degeneration as measured by OCT imaging): ip, dose of each compound in column Dose of Table 1; for retinal / photoreceptor morphology by OCT imaging: pretreatment before light 10,000 lux 30 min, OCT 7 days after light exposure; for Percent of mice with: subeffective doses BRM 0.1, MTP 1, TAM 0.05, DOX 1 mg/kg bw, OCT 7 days
Abca4−/−Rdh8−/− mice [2] = experiment: Bright light-induced retinal degeneration in Abca4−/−Rdh8−/− mice, retinal histology and immunohistochemistry; type: in vivo, mouse; conditions: pretreatment before light 10,000 lux 30 min; 7-10 days after light exposure
Method: Retinal histology and immunohistochemistry (IHC) was performed as previously described. Briefly, eye cups free of cornea, lens and vitreous body were fixed in 2% glutaraldehyde/4% paraformaldehyde and processed for Epon embedding. Sections 1 am thick were cut and stained with toluidine blue for histological examination under a light microscope. IHC analysis was performed on 12 am thick cryosections prepared from 4% paraformaldehyde-fixed eye cups. Collected cryosections were subjected to examination for rhodopsin, PNA and DAPI expression.
Retinal immunohistochemistry (IHC) was carried out as previously described. Briefly, eyes were enucleated and eye cups were made to eliminate cornea, lens and vitreous body and fixed in 4% paraformaldehyde and processed for cryosectioning. 12 am thick cryosections were collected cryosections and subjected to examination for rhodopsin, peanut agglutinin lectin (PNA) and DAPI expression.
Retinal immunohistochemistry (IHC) was performed as previously described. Briefly, eyes were enucleated and, after removal of the cornea, lens and vitreous body, eye cups were fixed in 4% paraformaldehyde and processed for cryosectioning. Twelve μm thick cryosections were cut, collected and examined for rhodopsin expression, peanut agglutinin lectin (PNA) for cone sheath and nuclear DAPI staining. […]

Abca4−/−Rdh8−/− mice [3] = experiment: Bright light-induced retinal degeneration in Abca4−/−Rdh8−/− mice, SLO autofluorescence imaging; type: in vivo, mouse; conditions: pretreatment before light 10,000 lux 30 min; SLO 8-9 days after light exposure
Method: SLO (Heidelberg Engineering, Heidelberg, Germany) was carried out for whole fundus imaging of mouse retinas. Mice were anesthetized by intraperitoneal injection of anesthetic cocktail indicated above, which was followed by pupil dilation using 1% tropicamide prior to SLO imaging under autofluorescence mode.
SLO (Heidelberg Engineering) was carried out for in vivo whole fundus imaging of mouse retinas. […] Numbers of autofluorescent spots were counted and subjected to statistical analyses as described below.
SLO (Heidelberg Engineering) was carried out for whole fundus imaging of mouse retinas in vivo. Mice were anesthetized, and their pupils were dilated as described above. SLO images were then acquired in the autofluorescence mode.

[4] = system: ROS generation in photoreceptors of Abca4−/−Rdh8−/− mice; experiment: In vivo detection of ROS (DHE probe) in retinas of light-exposed Abca4−/−Rdh8−/− mice; parameters: species or system mouse; conditions: Example 1; pretreatment before light 10,000 lux 30 min; retinas 3 h after illumination
Method: The ROS probe, DHE, at a dose of 20 mg/kg body weight was administered to Abca4^−/−Rdh8^−/− mice via intraperitoneal injection 30 min prior to light exposure. Eye cups obtained after removing the cornea, lens and vitreous body from enucleated eye globes 3 h post light illumination were fixed in 4% paraformaldehyde. Cryosections were prepared from fixed eye cups and cut at 12 am thickness for microscopic assessment of ROS signal fluorescence in the retina.
The ROS probe, DHE, at a dose of 20 mg/kg body weight in 25 μl of DMSO, was administered to Abca4^−/−Rdh8^−/− mice via intraperitoneal injection 1 h prior to light exposure. Eye cups obtained after removing the cornea, lens, and vitreous body from enucleated eye globes 3 h post light illumination were fixed in 4% paraformaldehyde. Cryosections were prepared from fixed eye cups and cut at 12-am thickness for microscopic assessment of ROS fluorescence in the retina with ImageJ software (National Institutes of Health).

Abca4−/−Rdh8−/− mice [5] = experiment: Bright light-induced retinal degeneration in Abca4−/−Rdh8−/− mice, ERG retinal function; conditions: pretreatment before light 10,000 lux 30 min, ERG 7 days to 2 weeks after
[6] = system: retinal transcriptome of Abca4−/−Rdh8−/− mice; experiment: RNA-seq retinal transcriptome of pretreated, light-exposed Abca4−/−Rdh8−/− mice (differential expression, Pearson, GSEA); type: in vivo, mouse
[7] = GSEA, vehicle-treated light-exposed retinas against drug-treated

CC1=C(/C=C/C(C)=C/C=C/C(C)=C/C=O)C(C)(C)CCC1 [atRAL, all-trans-retinal]
intracellular ROS production (ARPE19 cells): significantly elevated intracellular ROS production

COC(=O)[C@@H]1[C@H]2C[C@H]3c4[nH]c5ccccc5c4CCN3C[C@@H]2CC[C@@H]1O.Cl [Yohimbine]
Effect (effectiveness at preventing light-induced photoreceptor degeneration as measured by OCT imaging) (Abca4−/−Rdh8−/− mice [1]): toxic

COc1cc2nc(N3CCN(C(=O)c4ccco4)CC3)nc(N)c2cc1OC.Cl [Prazosin]
retinal histology / immunohistochemistry (rhodopsin, PNA, DAPI; ONL) (Abca4−/−Rdh8−/− mice [2]): substantially preserved photoreceptor morphology | retinal / photoreceptor morphology by OCT imaging (Abca4−/−Rdh8−/− mice [1]): substantial protection on photoreceptor morphology | retinal autofluorescence spots by SLO imaging (Abca4−/−Rdh8−/− mice [3]): significantly protected retinas from developing light-induced damage

CC1=C(/C=C/C(C)=C/C=C/C(C)=C/CN)C(C)(C)CCC1 [Ret-NH2, all-trans-retinylamine]
ROS production in the ONL / photoreceptors (DHE signal) [4]: significantly decreased ROS production

Cc1nc2sccn2c(=O)c1CCN1CCC(=C(c2ccc(F)cc2)c2ccc(F)cc2)CC1 [ritanserin, Ritanserin]
retinal / photoreceptor morphology by OCT imaging (Abca4−/−Rdh8−/− mice [1]): substantially protected photoreceptors from light-induced degeneration | retinal function by ERG (a-wave and b-wave amplitudes) (Abca4−/−Rdh8−/− mice [5]): protective effect

CN1CCC(c2cn(C)c3ccc(OS(=O)(=O)c4c(F)cccc4F)cc23)CC1 [SGS 518 oxalate]
retinal histology / immunohistochemistry (rhodopsin, PNA, DAPI; ONL) (Abca4−/−Rdh8−/− mice [2]): substantially preserved photoreceptor morphology | retinal / photoreceptor morphology by OCT imaging (Abca4−/−Rdh8−/− mice [1]): profound preservation of photoreceptor morphology | retinal autofluorescence spots by SLO imaging (Abca4−/−Rdh8−/− mice [3]): significantly reduced formation of autofluorescence spots

CCCN(CCC)C1CCc2cccc(O)c2C1 (centres unmarked) [8-OH-DPAT, 8-hydroxy-N,N-dipropyl-2-aminotetralin]
retinal / photoreceptor morphology by OCT imaging (Abca4−/−Rdh8−/− mice [1]): protective effect; also recorded: dose-dependent

CNc1cc(NS(=O)(=O)c2ccc(N)cc2)nc(NC)n1 [Ro 04-6790, 4-Amino-N-[2,6-bis(methylamino)-4-pyrimidinyl]benzenesulfonamidev]
retinal histology / immunohistochemistry (rhodopsin, PNA, DAPI; ONL) (Abca4−/−Rdh8−/− mice [2]): substantially preserved photoreceptor morphology | retinal / photoreceptor morphology by OCT imaging (Abca4−/−Rdh8−/− mice [1]): profound preservation of photoreceptor morphology | retinal autofluorescence spots by SLO imaging (Abca4−/−Rdh8−/− mice [3]): significantly reduced formation of autofluorescence spots | retinal function by ERG (a-wave and b-wave amplitudes) (Abca4−/−Rdh8−/− mice [5]; listed as RO): substantial preservation of the scotopic ERG response; also recorded: substantial preservation of this response

CC1CCN(CC[C@H]2CCCN2S(=O)(=O)c2cccc(O)c2)CC1.Cl [SB 269970, 3-({(2R)-2-[2-(4-Methyl-1-piperidinyl)ethyl]-1-pyrrolidinyl}sulfonyl)phenol hydrochloride (1:1)]
retinal / photoreceptor morphology by OCT imaging (Abca4−/−Rdh8−/− mice [1]): profound preservation of photoreceptor morphology | retinal autofluorescence spots by SLO imaging (Abca4−/−Rdh8−/− mice [3]): significantly reduced formation of autofluorescence spots

COc1cc(N)c(Cl)cc1C(=O)OCCCN1CCCCC1.Cl [RS 23579-190]
retinal histology / immunohistochemistry (rhodopsin, PNA, DAPI; ONL) (Abca4−/−Rdh8−/− mice [2]): substantially preserved photoreceptor morphology | retinal / photoreceptor morphology by OCT imaging (Abca4−/−Rdh8−/− mice [1]): profound preservation of photoreceptor morphology | retinal autofluorescence spots by SLO imaging (Abca4−/−Rdh8−/− mice [3]): significantly reduced formation of autofluorescence spots | retinal function by ERG (a-wave and b-wave amplitudes) (Abca4−/−Rdh8−/− mice [5]; listed as RS): substantial preservation of the scotopic ERG response; also recorded: substantial preservation of this response

Cl.N=C(N)NC(=O)Cc1c(Cl)cccc1Cl [Guanfacine]
retinal histology / immunohistochemistry (rhodopsin, PNA, DAPI; ONL) (Abca4−/−Rdh8−/− mice [2]): substantially preserved photoreceptor morphology | retinal / photoreceptor morphology by OCT imaging (Abca4−/−Rdh8−/− mice [1]): significantly prevented | retinal autofluorescence spots by SLO imaging (Abca4−/−Rdh8−/− mice [3]): markedly less autofluorescence spots

c1ccc([I+]c2ccccc2)cc1 [DPI, diphenyliodonium]
retinal histology / immunohistochemistry (rhodopsin, PNA, DAPI; ONL) (Abca4−/−Rdh8−/− mice [2]): nearly intact retinal morphology | retinal / photoreceptor morphology by OCT imaging (Abca4−/−Rdh8−/− mice [1]): well-preserved retinal morphology | retinal function by ERG (a-wave and b-wave amplitudes) (Abca4−/−Rdh8−/− mice [5]): protective effect

O=C(c1ccc(F)cc1)C1CCN(CCn2c(=O)[nH]c3ccccc3c2=O)CC1 [ketanserin]
retinal histology / immunohistochemistry (rhodopsin, PNA, DAPI; ONL) (Abca4−/−Rdh8−/− mice [2]): substantial protective effect | retinal function by ERG (a-wave and b-wave amplitudes) (Abca4−/−Rdh8−/− mice [5]): protective effect

CC(C)C[C@H]1C(=O)N2CCC[C@H]2[C@]2(O)O[C@](NC(=O)[C@@H]3C=C4c5cccc6[nH]c(Br)c(c56)C[C@H]4N(C)C3)(C(C)C)C(=O)N12 [BRM, 2-Bromo-α-ergocryptine methanesulfonate salt]
NES, CHEMOKINE SIGNALING gene set [6, 7]: 1.67 | NES, CYTOKINE- RECEPTOR INTERACTIO gene set [6, 7]: 2.31 | NES, P53 gene set [6, 7]: 2.06 | NES, TOLL-LIKE SIGNALING gene set [6, 7]: 2.20 | NES, APOPTOSIS gene set ([6]; GSEA, vehicle-treated light-exposed retinas against drug-treated, P in brackets not reported here): 1.75 | number of light-up-regulated gene sets significantly down-regulated (GSEA) ([6]; of 44 gene sets up-regulated by light, mono doses BRM 1, MTP 10, TAM 2.5, DOX 10 mg/kg bw): 29 gene sets | Percent of mice with (Abca4−/−Rdh8−/− mice [1]; Table 14 (complete protection, ONL ≥50 μm)): 16.7% of mice | Percent of mice with (Abca4−/−Rdh8−/− mice [1]; Table 14 (no protection, ONL ≤20 μm)): 66.7% of mice | light-exposed mice with complete retinal protection (Abca4−/−Rdh8−/− mice [1]; lower doses BRM 0.1, MTP 1, TAM 0.05 mg/kg bw, alone or all three combined): 17%

c1ccc2c(c1)OCC(C1=NCCN1)O2 (centres unmarked) [IDA, idazoxan]
effect on the protective action of GUB (Abca4−/−Rdh8−/− mice [1]; IDA 2.5 and 5 mg/kg BW first, then GUB 2 mg/kg BW, FIG. 25D): totally abolished the protective action

C[N+]1(C)CCC(OC(=O)C(c2ccccc2)c2ccccc2)CC1.[I-] [4-DAMP, 1,1-dimethyl-4-diphenylacetoxypiperidinium iodide]
retinal histology / immunohistochemistry (rhodopsin, PNA, DAPI; ONL) (Abca4−/−Rdh8−/− mice [2]): preserve retinal morphology | retinal function by ERG (a-wave and b-wave amplitudes) (Abca4−/−Rdh8−/− mice [5]): protective effect

Eltoprazine
Effect (effectiveness at preventing light-induced photoreceptor degeneration as measured by OCT imaging) (Abca4−/−Rdh8−/− mice [1]): 20%

CC(C)C[C@H](CN)CC(=O)O (single isomer, unassigned) [R and S enantiomer of pregabalin, pregabalin]
ROS production in the ONL / photoreceptors (DHE signal) [4]: also consistently observed

COc1ccc2c(c1)CC[C@@H]1[C@@H]2CC[C@]2(C)[C@@H](NCCCCCCN3C(=O)C=CC3=O)CC[C@@H]12 [U-73122, 1-(6-((17β-3-methoxyestra-1,3,5(10)-trien-17-yl)amino)hexyl)-1H-pyrrole-2,5-dione]
retinal histology / immunohistochemistry (rhodopsin, PNA, DAPI; ONL) (Abca4−/−Rdh8−/− mice [2]): markedly less light-induced photoreceptor damage | retinal function by ERG (a-wave and b-wave amplitudes) (Abca4−/−Rdh8−/− mice [5]): protective effect

CC(C)n1cc2c3c(cccc31)[C@H]1C[C@@H](C(=O)N[C@H]3CCC[C@H]3O)CN(C)[C@@H]1C2 [LY 215840, (8β)-N-[(1S,2R)-2-Hydroxycyclopentyl]-1-isopropyl-6-methylergoline-8-carboxamide]
retinal histology / immunohistochemistry (rhodopsin, PNA, DAPI; ONL) (Abca4−/−Rdh8−/− mice [2]): substantially preserved photoreceptor morphology | retinal / photoreceptor morphology by OCT imaging (Abca4−/−Rdh8−/− mice [1]): profound preservation of photoreceptor morphology | retinal autofluorescence spots by SLO imaging (Abca4−/−Rdh8−/− mice [3]): significantly reduced formation of autofluorescence spots | retinal function by ERG (a-wave and b-wave amplitudes) (Abca4−/−Rdh8−/− mice [5]; listed as LY): substantial preservation of the scotopic ERG response; also recorded: substantial preservation of this response

CC(Oc1c(Cl)cccc1Cl)C1=NCCN1.Cl (centres unmarked) [Lofexidine]
retinal / photoreceptor morphology by OCT imaging (Abca4−/−Rdh8−/− mice [1]): significantly prevented | retinal autofluorescence spots by SLO imaging (Abca4−/−Rdh8−/− mice [3]): markedly less autofluorescence spots | retinal function by ERG (a-wave and b-wave amplitudes) (Abca4−/−Rdh8−/− mice [5]; listed as LOF): substantial preservation of the scotopic ERG response; also recorded: substantial preservation of this response
